In patent US10829481B2, “Benzimidazole derivatives as modulators of ROR-gamma” (Vitae Pharmaceuticals, LLC, priority 2016, dated 2020):

Experiments:
[1] = target: recombinant RORγ Ligand Binding Domain (LBD) protein (Homo sapiens (Human), UniProt P51449); experiment: Radio-Ligand RORγ Binding Assay (Assay 1); conditions: competition with 25-hydroxy [26,27-3H]-cholesterol, SPA
Outline: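 His-GST-fused RORγ ligand-binding domain (24 nM solution) competed between compounds and tritiated 25-hydroxycholesterol (8.6 nM solution), read by SPA after brief rt incubations in pH 7.4 HEPES/glycerol/detergent buffer. Four-parameter curve fitting gave IC50 at inflection, converted to Ki using radioligand concentration and KD.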

[2] = target: full-length RORγt in Jurkat cells (Homo sapiens (Human), UniProt P51449); experiment: RORγt 5×RORE Assay in Jurkat Cells (Assay 2); format: cell-based; conditions: 5×RORE Nanoluc luciferase reporter
Chain of full-length RORγt in Jurkat cells (P51449 other isoform, or with tags, fused parts or gaps): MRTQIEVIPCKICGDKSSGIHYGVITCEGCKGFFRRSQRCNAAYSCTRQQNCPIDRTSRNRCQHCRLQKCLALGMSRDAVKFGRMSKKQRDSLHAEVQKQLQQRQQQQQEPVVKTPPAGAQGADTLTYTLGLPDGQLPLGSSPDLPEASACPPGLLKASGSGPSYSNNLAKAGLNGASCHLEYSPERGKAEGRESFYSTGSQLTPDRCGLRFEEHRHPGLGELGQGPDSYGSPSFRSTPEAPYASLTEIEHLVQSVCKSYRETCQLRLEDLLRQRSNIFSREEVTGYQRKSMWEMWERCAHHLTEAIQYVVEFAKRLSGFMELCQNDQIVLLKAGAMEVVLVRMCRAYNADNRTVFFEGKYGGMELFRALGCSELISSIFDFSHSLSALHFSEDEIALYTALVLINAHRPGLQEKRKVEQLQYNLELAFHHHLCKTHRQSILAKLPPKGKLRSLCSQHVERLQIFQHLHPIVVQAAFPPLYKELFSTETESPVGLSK

Chain of recombinant RORγ Ligand Binding Domain (LBD) protein (P51449 269-508): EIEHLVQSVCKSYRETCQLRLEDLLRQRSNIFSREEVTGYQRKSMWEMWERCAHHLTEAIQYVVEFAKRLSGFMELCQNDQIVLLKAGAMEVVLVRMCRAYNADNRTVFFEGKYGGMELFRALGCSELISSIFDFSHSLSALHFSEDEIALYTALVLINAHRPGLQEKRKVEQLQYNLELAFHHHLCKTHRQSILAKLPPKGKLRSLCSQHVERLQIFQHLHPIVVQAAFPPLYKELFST

Compound | Ki [1] [nM] | IC50 [2] [nM]
CCS(=O)(=O)c1ccc(CNC(=O)c2ccc3c(c2)nc(N(C)C)n3Cc2cccc3c2OC(F)(F)O3)cc1 [I-162, 1-((2,2-difluorobenzo[d][1,3]dioxol-4-yl)methyl)-2-(dimethylamino)-N-(4-(ethylsulfonyl)benzyl)-1H-benzo[d]imidazole-5-carboxamide] | < 100 | < 100
O=C(NCC1CCN(S(=O)(=O)CCO)CC1)c1ccc2c(c1)nc(C(F)(F)F)n2Cc1cccc2c1OC(F)(F)O2 [I-163, 1-((2,2-difluorobenzo[d][1,3]dioxol-4-yl)methyl)-N-((1-((2-hydroxyethyl)sulfonyl)piperidin-4-yl)methyl)-2-(trifluoromethyl)-1H-benzo[d]imidazole-5-carboxamide] | < 100 | < 100
CCS(=O)(=O)c1ccc([C@H](COCC(=O)O)NC(=O)c2ccc3c(c2)nc(C(F)(F)F)n3Cc2cccc3c2OC(F)(F)O3)cc1 [I-166, (R)-2-(2-(1-((2,2-difluorobenzo[d][1,3]dioxol-4-yl)methyl)-2-(trifluoromethyl)-1H-benzo[d]imidazole-5-carboxamido)-2-(4-(ethylsulfonyl)phenyl)ethoxy)acetic acid] | < 100 | > 1000
CCS(=O)(=O)c1ccc(C(O)C(=O)Nc2ccc3c(c2)nc(C(F)(F)F)n3Cc2cccc3c2OC(F)(F)O3)cc1 (stereo not shown) [I-170, N-(1-((2,2-difluorobenzo[d][1,3]dioxol-4-yl)methyl)-2-(trifluoromethyl)-1H-benzo[d]imidazol-5-yl)-2-(4-(ethylsulfonyl)phenyl)-2-hydroxyacetamide] | < 100 | < 100
CCS(=O)(=O)c1ccc(CNC(=O)c2ccc3c(c2)nc(C(F)(F)F)n3Cc2cccc3c2CCO3)cc1 [I-172, 1-((2,3-dihydrobenzofuran-4-yl)methyl)-N-(4-(ethylsulfonyl)benzyl)-2-(trifluoromethyl)-1H-benzo[d]imidazole-5-carboxamide] | < 100 | < 100
(R)-1-(1-(3-cyanophenyl)ethyl)-N-(4-(ethylsulfonyl)benzyl)-2-(trifluoromethyl)-1H-benzo[d]imidazole-5-carboxamide [I-93.2] | < 100 | < 100

More lines, now with the values ahead:

Ki [1] [nM] | IC50 [2] [nM] | Compound
< 100 | > 1000 | CCS(=O)(=O)c1ccc([C@H](CC(=O)O)NC(=O)c2ccc3c(c2)nc(C(F)(F)F)n3Cc2cccc3c2OC(F)(F)O3)cc1 [I-165, (S)-3-(1-((2,2-difluorobenzo[d][1,3]dioxol-4-yl)methyl)-2-(trifluoromethyl)-1H-benzo[d]imidazole-5-carboxamido)-3-(4-(ethylsulfonyl)phenyl)propanoic acid]
< 100 | < 100 | CCS(=O)(=O)c1ccc([C@H](CC(=O)NC)NC(=O)c2ccc3c(c2)nc(C(F)(F)F)n3Cc2cccc3c2OC(F)(F)O3)cc1 [I-167, (S)-1-((2,2-difluorobenzo[d][1,3]dioxol-4-yl)methyl)-N-(1-(4-(ethylsulfonyl)phenyl)-3-(methylamino)-3-oxopropyl)-2-(trifluoromethyl)-1H-benzo[d]imidazole-5-carboxamide]
< 100 | < 100 | CCS(=O)(=O)c1ccc([C@H](CC(N)=O)NC(=O)c2ccc3c(c2)nc(C(F)(F)F)n3Cc2cccc3c2OC(F)(F)O3)cc1 [I-168, (S)-N-(3-amino-1-(4-(ethylsulfonyl)phenyl)-3-oxopropyl)-1-((2,2-difluorobenzo[d][1,3]dioxol-4-yl)methyl)-2-(trifluoromethyl)-1H-benzo[d]imidazole-5-carboxamide]
< 100 | < 100 | CNC(=O)CS(=O)(=O)c1ccc(CNC(=O)c2ccc3c(c2)nc(C(F)(F)F)n3Cc2cccc3c2OC(F)(F)O3)cc1 [I-169, 1-((2,2-difluorobenzo[d][1,3]dioxol-4-yl)methyl)-N-(4-((2-(methylamino)-2-oxoethyl)sulfonyl)benzyl)-2-(trifluoromethyl)-1H-benzo[d]imidazole-5-carboxamide]
< 100 | 100 to 1000 | CCS(=O)(=O)c1ccc(CNC(=O)c2ccc3c(c2)nc(C(=O)OC)n3Cc2cccc3c2OC(F)(F)O3)cc1 [I-173, methyl 1-((2,2-difluorobenzo[d][1,3]dioxol-4-yl)methyl)-5-((4-(ethylsulfonyl)benzyl)carbamoyl)-1H-benzo[d]imidazole-2-carboxylate]
